Assay results taken from patent US8349896B2, “Aspirin-triggered lipid mediators” (The Brigham and Womens's Hospital, Inc., priority 2000, dated 2013).
Where two headings read alike, the source gives them in different places. Values belong to the compound of their own block, whether it stands above or below them.

What was measured:
[1] = test system: human PMN; assay: LTB4-stimulated PMN transendothelial migration; type: cell-based; conditions: for potency relative to the compounds derived from EPA: similar to results of FIGS. 9A (transmigration) and 9C (air pouch), no data shown; for IC50: human PMN, FIG. 9A; for rank order of potency, inhibition of PMN migration: tested in parallel for direct comparison
Protocol: Human PMNs were freshly isolated from venous blood of healthy volunteers (that declined taking medication for 2 wk before donation; Brigham and Women's Hospital protocol no. 88-02642) by Ficoll gradient and enumerated. Human umbilical vein or microvascular ECs (HUVECs or HMVECs, respectively) were cultured for transendothelial migration (Reference 10), HMVEC monolayers (one, two, or three passages) were seeded (−2×10^5 cells/cm^2) on polycarbonate permeable supports precoated with 0.1% gelatin for incubations with NSAIDs and PUFA.

[2] = test system: PMN infiltration into murine dorsal air pouches; assay: TNF-α induced leukocyte/PMN infiltration into murine dorsal air pouch; type: in vivo, FVB mice; conditions: 100 ng intravenously into tail; TNF-α 100 ng/pouch; lavage at 4 h
Protocol: Inflammatory exudates were initiated with intrapouch injection of TNF-α (R&D Systems) into 6 d dorsal air pouches with (Reference 16) 6-8-wk-old male FVB mice (fed standard rodent diet 5001 containing 0.26% n-3 fatty acids) followed by ASA (500 μg) at 3.5 h and 300 μg C20:5/pouch at 4 h. At 6 h, pouches were lavaged (3 ml saline), and exudate cells were enumerated and activated 94 μM A23187, 37° C., 20 min). Inhibition of TNF-α-stimulated (100 ng/pouch, FVB strain) PMN infiltration with intravenous tail injection of either 18 R-hydroxyeicosapentaenoic acid (HEPE), 5, 12, 18R-HEPE, or 15-epi-LXA, analogue was determined (Reference 16) with pouch lavages taken at 4 h.

[3] = biological target: T1, recombinant human LTB4 receptor (Homo sapiens, UniProt Q15722); assay: [3H]LTB4 competition binding, HEK-293 cells stably expressing receptor; conditions: HEK293 cells
T1 construct: expressed in transfected cells

[4] = biological target: T2, Recombinant Human COX-2 (Homo sapiens, UniProt P35354); assay: Conversion of PUFA to hydroxy compounds by recombinant COX-2 incubated with NSAID; type: biochemical; conditions: for 11R-HEPE, conversion of n-3 C20:5 / 15R-HEPE, conversion of n-3 C20:5 / 18R-HEPE, conversion of n-3 C20:5: Table 2, mean amount +/− SEM
T2 construct: host or cells: Sf9 insect cells, baculovirus; microsomal fractions
T2 sequence (P35354 18-604): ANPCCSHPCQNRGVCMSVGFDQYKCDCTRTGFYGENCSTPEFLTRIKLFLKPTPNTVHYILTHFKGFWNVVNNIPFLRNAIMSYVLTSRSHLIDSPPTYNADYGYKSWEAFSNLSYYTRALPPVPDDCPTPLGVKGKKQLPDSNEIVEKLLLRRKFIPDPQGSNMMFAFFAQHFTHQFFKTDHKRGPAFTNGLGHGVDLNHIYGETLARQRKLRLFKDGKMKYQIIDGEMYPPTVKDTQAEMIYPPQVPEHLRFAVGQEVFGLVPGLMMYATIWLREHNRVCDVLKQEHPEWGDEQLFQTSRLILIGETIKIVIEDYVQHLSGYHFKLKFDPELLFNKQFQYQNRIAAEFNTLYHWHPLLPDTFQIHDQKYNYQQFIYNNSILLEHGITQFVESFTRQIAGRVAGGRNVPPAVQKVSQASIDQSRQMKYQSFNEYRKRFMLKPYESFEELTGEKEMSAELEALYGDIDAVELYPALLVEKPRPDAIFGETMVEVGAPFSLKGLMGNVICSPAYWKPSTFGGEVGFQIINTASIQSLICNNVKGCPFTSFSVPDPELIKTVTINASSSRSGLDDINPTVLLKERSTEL
Protocol: Human recombinant COX-2 (a gift from Dr. R. A. Copeland, DuPont Merck, Wilmington, Del.) was overexpressed in […] (American Type Culture Collection) with microsomal fractions (˜8 μl) suspended in Tris (100 mM, pH 8.0) as in Reference 21. George, H. J., D. E. Van Dyk, R. A. Straney, J. M. Trzaskos, and R. A. Copeland. 1996. Expression purification and characterization of recombinant human inducible prostaglandin G/H synthase from baculovirus-infected insect cells. Protein Expres. Purif. 7:19-26. NSAIDs were incubated (i.e., ASA ˜1 mM) at 37° C. for 30 min before addition of PUFA (20 μM), and conversions were also monitored using 1-^14C-labeled C20:4 (See FIGS. 2A and 2B) or C20:5 (NEN Life Science Products) (See FIGS. 2C and 2D).

[5] = PUFA 20 μM, ASA ~1 mM or NS398 100 uM, mean ± SEM
[6] = PUFA 20 μM, ASA ~1 mM, mean ± SEM
[7] = Table 1, PUFA 20 μM, ASA ~1 mM or NS398 100 uM, mean ± SEM

T1 sequence (Q15722 whole entry): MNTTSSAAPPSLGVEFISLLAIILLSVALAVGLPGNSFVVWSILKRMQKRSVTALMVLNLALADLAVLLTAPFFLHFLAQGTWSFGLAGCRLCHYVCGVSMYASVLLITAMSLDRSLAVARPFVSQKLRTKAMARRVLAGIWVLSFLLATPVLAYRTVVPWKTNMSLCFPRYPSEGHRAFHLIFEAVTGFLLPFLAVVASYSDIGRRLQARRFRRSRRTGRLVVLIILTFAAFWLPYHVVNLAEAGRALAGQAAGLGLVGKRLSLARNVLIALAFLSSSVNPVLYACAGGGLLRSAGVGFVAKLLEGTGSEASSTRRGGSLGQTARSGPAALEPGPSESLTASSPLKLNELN

Compound: 19-hydroxy-DHA
potency relative to the compounds derived from EPA [1]: potencies equivalent to those described above for the compounds derived from EPA

IC50 ([1]; read-out: apparent IC50, inhibition of LTB4-stimulated PMN transendothelial migration): 5 to 50 nM
IC50 [3]: 500 nM
Compound: CC[C@@H](O)/C=C/C=C\C[C@@H](O)/C=C/C=C/C=C\[C@@H](O)CCCC(=O)O [5,12,18R-triHEPE]
inhibition of PMN infiltration into murine dorsal air pouches (in words) [2]: potent inhibitor of PMN infiltration
rank order of potency, inhibition of PMN migration [1]: 15-epi-LXA4 stable analogue >5,12,18R-tri-HEPE >18R-HEPE

Compound: CC/C=C\C/C=C\C=C\C(O)C/C=C\C/C=C\C/C=C\CCC(=O)O (stereo not drawn) [13-hydroxy-DHA]
potency relative to the compounds derived from EPA [1]: potencies equivalent to those described above for the compounds derived from EPA

Compound: CC/C=C\C/C=C\CC(O)/C=C/C=C\C/C=C\C/C=C\CCC(=O)O (stereo not drawn) [14-hydroxy-DHA]
potency relative to the compounds derived from EPA [1]: potencies equivalent to those described above for the compounds derived from EPA

Compound: O=C(O)CCC[C@H](O)[C@H](O)/C=C/C=C/C=C\C=C\[C@H](O)COc1ccc(F)cc1 [15-epi-LXA4 stable analogue, 15(5)-16(para-fluoro)-phenoxy-LXA4]
inhibition of PMN infiltration into murine dorsal air pouches (in words) [2]: potent inhibitor of PMN infiltration
rank order of potency, inhibition of PMN migration [1]: 15-epi-LXA4 stable analogue >5,12,18R-tri-HEPE >18R-HEPE

Compound: CC/C=C\C=C\C(O)C/C=C\C/C=C\C/C=C\C/C=C\CCC(=O)O (stereo not drawn) [16-hydroxy-DHA]
potency relative to the compounds derived from EPA [1]: potencies equivalent to those described above for the compounds derived from EPA

Compound: CC/C=C\CC(O)/C=C/C=C\C/C=C\C/C=C\C/C=C\CCC(=O)O (stereo not drawn) [17-hydroxy-DHA]
potency relative to the compounds derived from EPA [1]: potencies equivalent to those described above for the compounds derived from EPA

Compound: CCC(O)/C=C/C=C\C/C=C\C/C=C\C/C=C\C/C=C\CCC(=O)O (stereo not drawn) [20-hydroxy-DHA]
potency relative to the compounds derived from EPA [1]: potencies equivalent to those described above for the compounds derived from EPA

Compound: CC(=O)Oc1ccccc1C(=O)O [ASA, aspirin]
increase in 18R-HEPE on ASA acetylation of COX-2 ([4]; C20:5): approximately twofold increase
reduction in 11R-HEPE on ASA acetylation of COX-2 ([4]; C20:5): > 85%
11R-HETE (ω-9) generated from C20:4 [4, 5]: 1.4 ± 1.6 ng/incubation
15R-HETE (ω-5) generated from C20:4 [4, 5]: 234.0 ± 112.5 ng/incubation
9-HODE (ω-9) generated from C18:2 [4, 6]: 25.2 ± 17.8 ng/incubation
13-HODE (ω-5) generated from C18:2 [4, 6]: 2.9 ± 0.6 ng/incubation
11R-HEPE (ω-9) generated from C20:5 [4, 7]: 5.4 ± 3.3 ng/incubation
15R-HEPE (ω-5) generated from C20:5 [4, 7]: 16.8 ± 5.8 ng/incubation
18R-HEPE (ω-2) generated from C20:5 [4, 7]: 16.2 ± 3.3 ng/incubation
11R-HEPE, conversion of n-3 C20:5 [4]: 5.5 ± 2.3 ng
15R-HEPE, conversion of n-3 C20:5 [4]: 8.0 ± 5.6 ng
18R-HEPE, conversion of n-3 C20:5 [4]: 12.2 ± 4.6 ng

11R-HEPE, conversion of n-3 C20:5 [4]: 6.7 ± 3.0 ng
15R-HEPE, conversion of n-3 C20:5 [4]: 4.6 ± 1.2 ng
18R-HEPE, conversion of n-3 C20:5 [4]: 5.5 ± 2.4 ng
reduction of levels of 15R- and 18R-HEPE versus absence of inhibitors ([4]; recombinant COX-2 and C20:5, concentrations as high as 2 mM, n=3): three to eight times
Compound: CC(=O)Nc1ccc(O)cc1 [Acetaminophen]

Compound: CC[C@@H](O)/C=C/C=C\C/C=C\C/C=C\C/C=C\CCCC(=O)O [Compound 18R-HEPE, 18R-hydroxyeicosapentaenoic acid]
inhibition of PMN infiltration into murine dorsal air pouches (in words) [2]: some activity in vivo
IC50 ([1]; read-out: IC50, inhibition of LTB4-stimulated PMN transendothelial migration): > 1000 nM
rank order of potency, inhibition of PMN migration [1]: 15-epi-LXA4 stable analogue >5,12,18R-tri-HEPE >18R-HEPE
competition with 3H-LTB4 (in words) [3]: did not

IC50 [3]: 500 nM
Compound: CC/C=C\C/C=C\C[C@@H](O)/C=C/C=C/C=C\[C@@H](O)CCCC(=O)O [LTB5]
